From ChEMBL document CHEMBL1201862, “PubChem BioAssay data set” (2004) come the findings set out here.

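Step 1: Grow cells in 96-well plates. Step 2: Expose to compound for 48 hours at 5 concentrations. Step 3: Interpolate endpoints linearly; if unreached, use highest concentration. At the GI50, growth is halved.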 The source made the active and inactive calls. Cut-off read from the data, not from the text of the source: active = GI50 up to about 1.1 µM and inactive = higher. Some results are limits rather than exact numbers.

Among the test systems are HCT-116; TK-10; HCT-15; IGROV-1; HT-29; CCRF-CEM; Malme-3M; SNB-75; UO-31; UACC-62; K562; EKVX; 786-0; HOP-62; CAKI-1; SR.
What all share (assay): NCI tumour cell line growth inhibition, 48 h

Take `COc1ccccc1C12OC(=O)C1(C)Oc1ccccc1C2=O` (stereo not given): the GI50 in the experiment with HCT-116 was > 100 µM (inactive); with TK-10 it was > 100 µM (inactive); in the experiment on HCT-15, more than 100 µM; with IGROV-1, > 100 µM (inactive); in the experiment with HT-29 it was > 100 µM (inactive); with CCRF-CEM, > 100 µM (inactive). The GI50 was > 100 µM (inactive) in the experiment on Malme-3M; 34.8 µM (inactive) in the experiment with SNB-75; > 100 µM (inactive) in the experiment with UO-31; > 100 µM (inactive) in the experiment on UACC-62; > 100 µM (inactive) with K562; > 100 µM (inactive) with EKVX. The GI50 with 786-0 and in the experiment with HOP-62 was > 100 µM (inactive) in each case.
In the case of `Nc1ccc(C(=O)N/C(=C\c2ccc3c(c2)OCO3)c2nc3ccccc3s2)cc1`, the GI50 in the experiment with TK-10 was 19.8 µM (inactive); in the experiment with HCT-15 it was 11.3 µM; in the experiment on CAKI-1 it was 15.9 µM (inactive); in the experiment on IGROV-1, 14.6 µM (inactive); with HT-29, 12.6 µM (inactive); in the experiment with CCRF-CEM, 1.89 µM (inactive). Also, the GI50 with Malme-3M was > 10 µM (inactive); with SR, 6.01 µM (inactive); with UO-31, 15.6 µM (inactive); in the experiment with UACC-62, 14.4 µM (inactive); in the experiment with K562 it was 5.38 µM (inactive); with EKVX, 12.9 µM (inactive). Further, the GI50 in the experiment with 786-0 is 11.6 µM (inactive).
As to `COc1ccc(N2C(=O)C3CC(c4ccc(Br)cc4)c4c([nH]c5ccccc45)C3C2=O)cc1` (stereo not given), the GI50 in the experiment with HCT-116 is 6.4 µM (inactive); with TK-10, 7.1 µM (inactive); with HCT-15 it was 90.6 µM; in the experiment with CAKI-1, 15.1 µM (inactive); with IGROV-1, 10.6 µM (inactive); in the experiment with HT-29, 13.2 µM (inactive). Besides, the GI50 in the experiment on CCRF-CEM is 8.59 µM (inactive); in the experiment on Malme-3M, 14.8 µM (inactive); in the experiment on SNB-75 it was 9.12 µM (inactive); in the experiment with UO-31, 11 µM (inactive); in the experiment on UACC-62, 16.1 µM (inactive); in the experiment with K562, 5.37 µM (inactive). Moreover, the GI50 in the experiment with EKVX was 16.9 µM (inactive); in the experiment on 786-0, 2.2 µM (inactive); in the experiment with HOP-62 it was 3.91 µM (inactive).
In the case of `NC1=NN(c2ccccc2)C(=O)C1/C(=N\NC(=O)c1cc2ccccc2cc1O)C(=O)Nc1ccc(Cl)cc1` (stereo not given), the GI50 in the experiment on HCT-116 was 11.9 µM (inactive); with TK-10, 37.1 µM (inactive); with HCT-15, 10.5 µM; with CAKI-1, 31 µM (inactive); in the experiment on IGROV-1, 20 µM (inactive); in the experiment on HT-29 it was 42.5 µM (inactive). Further, the GI50 in the experiment on CCRF-CEM was 3.73 µM (inactive); with Malme-3M, 30.8 µM (inactive); in the experiment with SNB-75, 4.72 µM (inactive); with UO-31 it was 21.8 µM (inactive); with UACC-62, 19 µM (inactive); in the experiment on K562, 10.1 µM (inactive). In addition, the GI50 in the experiment with EKVX was 22.8 µM (inactive); in the experiment with 786-0, 20.2 µM (inactive); in the experiment on HOP-62 it was 36.6 µM (inactive).
`N#Cc1c2ccccc2c(Cc2ccc3c(c2)OCCOCCOCCOCCOCCO3)c2ccccc12`: the GI50 is 6.12 µM (inactive) with HCT-116; 5.01 µM (inactive) with TK-10; 5.57 µM in the experiment on HCT-15; 10.1 µM (inactive) with CAKI-1; 4.34 µM (inactive) in the experiment on IGROV-1; 3.21 µM (inactive) in the experiment on CCRF-CEM. Further, the GI50 was 6.44 µM (inactive) in the experiment on Malme-3M; 24.5 µM (inactive) in the experiment with SR; 3.85 µM (inactive) with UO-31; 6.41 µM (inactive) in the experiment on UACC-62; 3.15 µM (inactive) with K562; 16.3 µM (inactive) with EKVX. For the same compound, the GI50 is 10.9 µM (inactive) in the experiment with 786-0 and 10.3 µM (inactive) in the experiment on HOP-62.
As for `COc1cc([C@@H]2c3cc4c(cc3[C@@H](NC(=O)c3ccc([N+](=O)[O-])cc3)C3COC(=O)[C@@H]32)OCO4)cc(OC)c1O` (stereo not given in full), the GI50 with HCT-116 is 0.678 µM (active); in the experiment with TK-10 it was 2.03 µM (inactive); with HCT-15, 1.57 µM; in the experiment on CAKI-1, 0.569 µM (active); in the experiment on IGROV-1 it was 0.261 µM (active); in the experiment with HT-29, 1.58 µM (inactive). Further, the GI50 in the experiment on CCRF-CEM was 0.124 µM (active); in the experiment on Malme-3M it was 0.817 µM (active); in the experiment with SNB-75 it was 0.809 µM (active); in the experiment with UO-31, 2.63 µM (inactive); in the experiment on UACC-62, 0.241 µM (active); with K562 it was 0.889 µM (active). Also, the GI50 in the experiment on EKVX is 0.975 µM (active); in the experiment on 786-0 it was 0.242 µM (active); in the experiment with HOP-62, 0.128 µM (active).
For `CCOc1ccc2c(c1)[n+]([O-])c(-c1ccc(Cl)cc1)c(N)[n+]2[O-]`, the GI50 in the experiment with HCT-116 was > 100 µM (inactive); in the experiment with HCT-15 it was more than 100 µM; in the experiment on CAKI-1 it was > 100 µM (inactive); in the experiment on IGROV-1, > 100 µM (inactive); in the experiment with HT-29, > 100 µM (inactive); in the experiment with Malme-3M it was > 100 µM (inactive). The GI50 in the experiment on SNB-75 is 85.1 µM (inactive); in the experiment on SR it was > 100 µM (inactive); in the experiment with UO-31 it was 67.1 µM (inactive); in the experiment on K562, > 100 µM (inactive); with EKVX it was 95.7 µM (inactive); in the experiment on 786-0 it was > 100 µM (inactive). Moreover, in the experiment on HOP-62, the GI50 is > 100 µM (inactive).
On to `Cc1cc2nc3c(C(OC4OC(CO)C(O)C(O)C4O)C(O)CO)nn(-c4ccc(F)cc4)c3nc2cc1C` (stereo not given), for which the GI50 is > 100 µM (inactive) with HCT-116; > 100 µM (inactive) in the experiment on TK-10; more than 100 µM with HCT-15; > 100 µM (inactive) in the experiment with HT-29; > 100 µM (inactive) in the experiment with CCRF-CEM; > 100 µM (inactive) with Malme-3M. For the same compound, the GI50 in the experiment on SNB-75 is 80.7 µM (inactive); in the experiment on SR, > 100 µM (inactive); in the experiment with UO-31, > 100 µM (inactive); with UACC-62 it was > 100 µM (inactive); with K562, > 100 µM (inactive); in the experiment on EKVX, > 100 µM (inactive). Besides, the GI50 in the experiment with 786-0 and in the experiment on HOP-62 was > 100 µM (inactive) in each case.
Take `COc1cc(/C=C/c2ccc(OC)c(O)c2)cc(OC)c1`: the GI50 is 3.4 µM (inactive) in the experiment on HCT-116; 37.3 µM (inactive) with TK-10; 3.94 µM in the experiment on HCT-15; 25.5 µM (inactive) with CAKI-1; 18.7 µM (inactive) in the experiment with IGROV-1; 16.7 µM (inactive) in the experiment with HT-29. Further, the GI50 in the experiment on CCRF-CEM was 3.15 µM (inactive); with Malme-3M it was 10 µM (inactive); with UO-31 it was 9.46 µM (inactive); in the experiment on UACC-62, 3.15 µM (inactive); in the experiment with K562, 2.43 µM (inactive); in the experiment with EKVX, 9.66 µM (inactive). For the same compound, the values for the GI50 with 786-0 and with HOP-62 were 15.7 µM (inactive) and 4.2 µM (inactive), respectively.
For the compound `Cc1n[nH]c(=S)n(C)c1=S`, the GI50 in the experiment with HCT-116 is > 100 µM (inactive); in the experiment with TK-10, > 100 µM (inactive); in the experiment on HCT-15, more than 100 µM; with IGROV-1, > 100 µM (inactive); in the experiment on CCRF-CEM, > 100 µM (inactive); in the experiment on Malme-3M, > 100 µM (inactive). Further, the GI50 in the experiment on SNB-75 is > 100 µM (inactive); in the experiment with UO-31 it was > 100 µM (inactive); in the experiment on UACC-62 it was > 100 µM (inactive); in the experiment with K562, > 100 µM (inactive); in the experiment on EKVX, 56.1 µM (inactive); in the experiment with 786-0, > 100 µM (inactive). Moreover, the GI50 in the experiment with HOP-62 was > 100 µM (inactive).
In the case of `O=[N+]([O-])c1ccc2nc(/C(=N/Nc3ccccc3)C(O)c3ccc(C(O)/C(=N\Nc4ccccc4)c4nc5ccc([N+](=O)[O-])cc5nc4O)cc3)cnc2c1` (stereo not given), the GI50 with HCT-116 was 55.5 µM (inactive); with TK-10, > 100 µM (inactive); with CAKI-1 it was 60.4 µM (inactive); in the experiment on IGROV-1 it was > 100 µM (inactive); in the experiment on HT-29, > 100 µM (inactive); with CCRF-CEM it was 39.6 µM (inactive). Further, the GI50 in the experiment on Malme-3M was > 100 µM (inactive); in the experiment with SR, 33.7 µM (inactive); with UO-31, 23 µM (inactive); in the experiment with UACC-62 it was 36 µM (inactive); with K562, 13.6 µM (inactive); in the experiment on EKVX it was > 100 µM (inactive). The figures for the GI50 in the experiment with 786-0 and with HOP-62 were > 100 µM (inactive) and 28.5 µM (inactive), respectively.
For the compound `CCOC(=O)C(=O)Nc1c(C)cccc1C`, the GI50 was > 100 µM (inactive) with HCT-116; > 100 µM (inactive) in the experiment with TK-10; more than 100 µM with HCT-15; > 100 µM (inactive) in the experiment on CAKI-1; > 100 µM (inactive) with IGROV-1; > 100 µM (inactive) in the experiment on HT-29. Moreover, the GI50 with Malme-3M, with SNB-75, with UO-31, with UACC-62, with EKVX and in the experiment on 786-0 was > 100 µM (inactive) each time. The GI50 in the experiment on HOP-62 was > 100 µM (inactive).
On to `O=C[C@]12CC=C3OC4OC5(CCCCC5)OC4[C@H]3[C@H]1C(=O)C=CC2=O` (stereo not given in full), for which the GI50 in the experiment with HCT-116 is 19.9 µM (inactive); with TK-10, 35.1 µM (inactive); in the experiment on HCT-15, 18.7 µM; in the experiment with CAKI-1, 23 µM (inactive); with HT-29 it was 40.2 µM (inactive); in the experiment on CCRF-CEM, 2.44 µM (inactive). Besides, the GI50 was 17.6 µM (inactive) in the experiment on Malme-3M; 2.52 µM (inactive) with SR; 12.1 µM (inactive) in the experiment with UO-31; 21.5 µM (inactive) in the experiment with UACC-62; > 10 µM (inactive) in the experiment on K562; 16.1 µM (inactive) in the experiment with EKVX. Moreover, the GI50 in the experiment on 786-0 was 9.84 µM (inactive); in the experiment on HOP-62, > 100 µM (inactive).
Consider `O=C(NCCNCCO)c1cccc2ccc(-c3ccccc3)nc12`, for which the GI50 with HCT-116 was 2.73 µM (inactive); in the experiment with TK-10 it was 1.44 µM (inactive); with HCT-15 it was 3.8 µM; in the experiment on CAKI-1 it was 3.38 µM (inactive); with IGROV-1 it was 3.12 µM (inactive); with HT-29, 4.13 µM (inactive). Also, the GI50 in the experiment with CCRF-CEM was 3.4 µM (inactive); in the experiment on SNB-75 it was 10.4 µM (inactive); with UO-31, 3.44 µM (inactive); in the experiment with UACC-62, 4.54 µM (inactive); in the experiment on K562 it was 5.97 µM (inactive); in the experiment with EKVX it was 5.94 µM (inactive). Also, the GI50 in the experiment with 786-0 is 6.87 µM (inactive); in the experiment on HOP-62, 10.3 µM (inactive).
